Laboratory results published in patent publication US10774083B2, “Heterocyclic amide compound” (TAKEDA PHARMACEUTICAL COMPANY LIMITED, priority 2016, dated 2020).

Legend:
[1] = system: human fibrosarcoma cell line HT-1080; assay: antitumor action on mice transplanted with human fibrosarcoma cell line HT-1080; type: in vivo, mouse; settings: HT-1080, 10 mg/kg orally, once per day, 11 days
Method: An antitumor action of the compound of the present invention on mice transplanted with human malignant melanoma cell line SKMEL-2 and human fibrosarcoma cell line HT-1080 was evaluated by the following method.
Human fibrosarcoma cell line HT-1080 was subcutaneously transplanted by injection into 7-week-old BALB/cA Jcl-nu/nu female mouse (CLEA Japan, Inc.) by 7.5×10^6 cells. At 8 days from transplantation, the tumor diameter of the engrafted tumor was measured and the tumor volume was calculated by the following formula. tumor volume=major axis×minor axis×minor axis×(½)
Individuals having a tumor volume of 100 to 300 mm^3 were selected for SKMEL-2, and individuals having a tumor volume of 200 to 400 mm^3 were selected for HT-1080, and 4 or 5 mice per group were used for the experiment. A 0.5% methylcellulose suspension of the test compound was orally administered to the mice at the dose (dose per administration), administration frequency and dosing period shown in Table 3. The tumor diameter was measured one day before the start of administration and one day after completion of administration and the tumor volume was calculated.
The tumor proliferation rate (T/C (%)) of the test compound administration group in comparison with the control administration group was calculated by the following formula. […]

[2] = target: T1, human PRS protein (His-Avi-hEPRS (998-1512)) (Homo sapiens, UniProt P07814); assay: PRS inhibitory activity ([32P]pyrophosphate exchange enzyme assay); type: biochemical; settings: 300 nM test compound; read-out: inhibitory rate (%) of PRS
T1 construct: to construct His-Avi-hEPRS (998-1512) expression plasmid; His tag (N); Avi tag (N); TEV cleavage site (ENLYFQG, then S; inferred from the forward primer hEPRS-TEV-NheF) (N); made in house; host or cells: E. coli BL21(DE3)
T1 sequence (P07814 998-1512 limits assumed): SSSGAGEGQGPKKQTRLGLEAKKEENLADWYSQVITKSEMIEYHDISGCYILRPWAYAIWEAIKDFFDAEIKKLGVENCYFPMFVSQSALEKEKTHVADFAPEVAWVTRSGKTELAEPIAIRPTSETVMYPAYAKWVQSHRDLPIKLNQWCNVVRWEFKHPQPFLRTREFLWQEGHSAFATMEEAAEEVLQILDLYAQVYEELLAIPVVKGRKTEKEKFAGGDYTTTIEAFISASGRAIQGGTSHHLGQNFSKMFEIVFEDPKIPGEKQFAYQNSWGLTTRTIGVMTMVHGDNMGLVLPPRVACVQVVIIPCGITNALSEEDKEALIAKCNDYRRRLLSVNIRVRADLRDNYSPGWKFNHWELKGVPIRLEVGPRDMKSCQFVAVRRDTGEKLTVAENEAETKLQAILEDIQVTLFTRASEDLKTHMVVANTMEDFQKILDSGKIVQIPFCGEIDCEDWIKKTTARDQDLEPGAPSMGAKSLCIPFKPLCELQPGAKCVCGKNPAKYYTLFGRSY
Method in brief: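 Compound was pre-incubated 60 min with 40 nM His-Avi-hEPRS (998-1512) (stock, E. coli-expressed) in Tris pH 7.5/KCl/DTT/Tween/MgCl2. Reaction began with substrate mix containing 300 μM ATP, 160 μM L-proline, 400 μM [32P]pyrophosphate (stock levels) and ran 30 min at room temperature. Charcoal-bound radioactivity was counted; inhibition was relative to no-reaction control.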

[3] = system: human ovarian cancer cells A2780; assay: proliferation inhibitory activity against human ovarian cancer cell A2780 (CellTiter-Glo); type: cell-based; settings: A2780, 72 h, 1 μM test compound, 3 days of culture, read-out: proliferation inhibitory rate (%) of A2780 cells
Method in brief: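 A2780 cells in RPMI-1640 with 10% FBS, compound added the day after seeding and cultured 3 days. Viability by CellTiter-Glo luminescence. Inhibition (%) calculated with cell-free wells as 100% inhibition.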

| inhibition at 0.3 µM [2] | SMILES | T/C (%) tumor proliferation rate [1] | inhibition at 1 µM [3] |
| --- | --- | --- | --- |
| 99% | Cc1cc(N2C(=O)[C@](C#N)(C3CC3)C[C@@H]2C)cc(C(=O)NCc2cc(F)cc(-c3cnn(C)c3)c2)n1 [Example 221, 4-((3S,5S)-3-cyano-3-cyclopropyl-5-methyl-2-oxopyrrolidin-1-yl)-N-(3-fluoro-5-(1-methyl-1H-pyrazol-4-yl)benzyl)-6-methylpyridine-2-carboxamide] | – | 64% |
| 100% | Cc1cn(-c2cc(F)cc(CNC(=O)c3cc(N4CC[C@@](C#N)(C5CC5)C4=O)cc(C)n3)c2)cn1 [Example 228, 4-((3S)-3-cyano-3-cyclopropyl-2-oxopyrrolidin-1-yl)-N-(3-fluoro-5-(4-methyl-1H-imidazol-1-yl)benzyl)-6-methylpyridine-2-carboxamide] | – | 88% |
| 100% | Cc1cc(N2CCC(C#N)(C3CCC3)C2=O)cc(C(=O)NCc2cc(F)cc(-c3cnn(C)c3)c2)n1 (stereo not drawn) [Example 229, 4-(3-cyano-3-cyclobutyl-2-oxopyrrolidin-1-yl)-N-(3-fluoro-5-(1-methyl-1H-pyrazol-4-yl)benzyl)-6-methylpyridine-2-carboxamide] | – | 91% |
| 100% | Cc1cc(N2CCC3(CCC3)C2=O)cc(C(=O)NCc2cc(F)cc(-c3cnn(C)c3)c2)n1 [Example 232, N-(3-fluoro-5-(1-methyl-1H-pyrazol-4-yl)benzyl)-6-methyl-4-(5-oxo-6-azaspiro[3.4]oct-6-yl)pyridine-2-carboxamide] | – | 64% |
| 100% | Cc1cc(N2CCC3(CC3)C2=O)cc(C(=O)NCc2cc(F)cc(-c3cnn(C)c3)c2)n1 [Example 233, N-(3-fluoro-5-(1-methyl-1H-pyrazol-4-yl)benzyl)-6-methyl-4-(4-oxo-5-azaspiro[2.4]hept-5-yl)pyridine-2-carboxamide] | – | 70% |
| 101% | Cc1cc(N2CC[C@@](C#N)(C3CC3)C2=O)nc(C(=O)NCc2cc(F)cc(-c3cnn(C)c3)c2)n1 [Example 238, 4-((3S)-3-cyano-3-cyclopropyl-2-oxopyrrolidin-1-yl)-N-(3-fluoro-5-(1-methyl-1H-pyrazol-4-yl)benzyl)-6-methylpyrimidine-2-carboxamide] | – | 95% |

The remaining lines, values behind:

| SMILES | inhibition at 0.3 µM [2] | T/C (%) tumor proliferation rate [1] | inhibition at 1 µM [3] |
| --- | --- | --- | --- |
| Cn1cc(-c2cc(F)cc(CNC(=O)c3ncnc4nc(C5COCCO5)[nH]c34)c2)cn1 (stereo not drawn) [Example 32, 8-(1,4-dioxan-2-yl)-N-(3-fluoro-5-(1-methyl-1H-pyrazol-4-yl)benzyl)-7H-purine-6-carboxamide] | 101% | -8.2% | 76% |
| Cn1cc(-c2cc(F)cc(CNC(=O)c3cc(N4CC[C@@](C#N)(C5CC5)C4=O)cc(C(F)F)n3)c2)cn1 [Example 214, 4-((3S)-3-cyano-3-cyclopropyl-2-oxopyrrolidin-1-yl)-6-(difluoromethyl)-N-(3-fluoro-5-(1-methyl-1H-pyrazol-4-yl)benzyl)pyridine-2-carboxamide] | 99% | – | 72% |
| Cc1cc(N2CC[C@@](C#N)(C3CC3)C2=O)cc(C(=O)NCc2cc(Cl)cc(-c3cnn(C)c3)c2)n1 [Example 216, N-(3-chloro-5-(1-methyl-1H-pyrazol-4-yl)benzyl)-4-((3S)-3-cyano-3-cyclopropyl-2-oxopyrrolidin-1-yl)-6-methylpyridine-2-carboxamide] | 101% | – | 89% |
| Cc1cc(CNC(=O)c2cc(N3CC[C@@](C#N)(C4CC4)C3=O)cc(C)n2)cc(-c2cnn(C)c2)c1 [Example 217, 4-((3S)-3-cyano-3-cyclopropyl-2-oxopyrrolidin-1-yl)-6-methyl-N-(3-methyl-5-(1-methyl-1H-pyrazol-4-yl)benzyl)pyridine-2-carboxamide] | 101% | – | 80% |
